The text below walks through data of PubChem BioAssay AID330 (DTP/NCI, 2004).

Molecules are shown by their SMILES. Several values for one entry are separate records, joined by “and”; a condition that tells them apart may be missing. Identical values can stand only once. Toxic doses and inconclusive results are not listed.

In this experiment the test system is P388 leukemia ip, CD2F1 mice, survival T/C. Briefly: NCI In Vivo Anticancer Drug Screen. Data for tumor model P388 Leukemia (intraperitoneal) in CD2F1 (CDF1) mice. Particulars: endpoint: median survival time, higher = longer survival. The essentials: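 Mice carrying the transplanted tumor received test compound or vehicle. Survival was recorded in each group, and the value is the treated-group measurement divided by that of the vehicle-treated control group.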

[1] abbreviates: dose: 25.0 mg/kg/injection, schedule: Q01DX009 (ip), vehicle: other.
The mark [2] stands for this setting: dose: 50.0 mg/kg/injection, schedule: Q01DX009 (ip), vehicle: other.
[3] abbreviates: dose: 100.0 mg/kg/injection, schedule: Q01DX009 (ip), vehicle: other.
Setting [4] is: dose: 60.0 mg/kg/injection, schedule: Q01DX005 (ip), vehicle: Klucel (hydroxypropylcellulose) (HPC).
Setting [5] is: dose: 120.0 mg/kg/injection, schedule: Q01DX005 (ip), vehicle: Klucel (hydroxypropylcellulose) (HPC).
Setting [6] is: dose: 50.0 mg/kg/injection, schedule: Q01DX005 (ip), vehicle: Klucel (hydroxypropylcellulose) (HPC).
Where [7] appears, read: dose: 100.0 mg/kg/injection, schedule: Q01DX005 (ip), vehicle: Klucel (hydroxypropylcellulose) (HPC).
Where [8] appears, read: dose: 200.0 mg/kg/injection, schedule: Q01DX005 (ip), vehicle: Klucel (hydroxypropylcellulose) (HPC).
The mark [9] stands for this setting: dose: 60.0 mg/kg/injection, schedule: Q01DX005 (ip), vehicle: saline with Tween-80.
[10] abbreviates: dose: 120.0 mg/kg/injection, schedule: Q01DX005 (ip), vehicle: saline with Tween-80.
Where [11] appears, read: dose: 50.0 mg/kg/injection, schedule: Q01DX005 (ip), vehicle: saline with Tween-80.

In the case of `CC1=C(C#N)C(C)(C)C(C#N)=C(C)N1C`, the T/C reads like this: under setting [1], 110 % of control; under setting [2], 111 % of control; (dose: 50.0 mg/kg/injection, schedule: Q01DX009 (ip), vehicle: saline with Tween-80) 102 % of control; under setting [3], 121 % of control; (dose: 100.0 mg/kg/injection, schedule: Q01DX009 (ip), vehicle: saline with Tween-80) 98 % of control.

In the case of `Cc1nnc2n(N)c(=O)c(CC(=O)c3ccc(F)cc3)nn12`, the T/C runs as follows: under setting [4], 96 % of control; under setting [5], 88 % of control; (dose: 240.0 mg/kg/injection, schedule: Q01DX005 (ip), vehicle: Klucel (hydroxypropylcellulose) (HPC)) 90 % of control.

Regarding `COc1c(C)cc(C)c(CO)c1-c1c(CO)c(C)cc(C)c1OC`, the T/C is 99 % of control (dose: 100.0 mg/kg/injection, schedule: Q01DX001 (ip), vehicle: Klucel (hydroxypropylcellulose) (HPC)); 101 % of control (dose: 200.0 mg/kg/injection, schedule: Q01DX001 (ip), vehicle: Klucel (hydroxypropylcellulose) (HPC)); 99 % of control (dose: 400.0 mg/kg/injection, schedule: Q01DX001 (ip), vehicle: Klucel (hydroxypropylcellulose) (HPC)).

With `CC(=O)Nc1ccccc1NOC(=O)c1ccccc1NC(C)=O`, the T/C under setting [6] was 91 % of control, the T/C under setting [7] was 87 % of control and the T/C under setting [8] was 91 % of control.

`Cc1ccc(S(=O)(=O)OCCOCCOc2ccc3ccccc3c2-c2c(OCCOS(=O)(=O)c3ccc(C)cc3)ccc3ccccc23)cc1`: the T/C is 89 % of control (dose: 100.0 mg/kg/injection, schedule: Q01DX001 (ip), vehicle: saline with Tween-80) and 100 % of control (dose: 200.0 mg/kg/injection, schedule: Q01DX001 (ip), vehicle: saline with Tween-80).

Regarding `COC1=C(OC)C(=O)C2=C(OCO2)C1=O`, the T/C runs as follows: under setting [9], 104 % of control; under setting [10], 100 % of control; (dose: 240.0 mg/kg/injection, schedule: Q01DX005 (ip), vehicle: saline with Tween-80) 107 % of control.

Take `O=[N+]([O-])C(CO)(CO)CC(F)(F)F`: the T/C (dose: 6.25 mg/kg/injection, schedule: Q04DX003 (ip), vehicle: saline) was 100 % of control.

Regarding `C=C1C(=O)OC2C3CCC2C1C3` (centres undefined), the T/C runs as follows: (dose: 12.5 mg/kg/injection, schedule: Q04DX003 (ip), vehicle: saline with Tween-80) 101 % of control; (dose: 25.0 mg/kg/injection, schedule: Q04DX003 (ip), vehicle: saline with Tween-80) 115 % of control; (dose: 50.0 mg/kg/injection, schedule: Q04DX003 (ip), vehicle: saline with Tween-80) 100 % of control.

Consider `NC(N)=NN=C(C1CC1)C1CC1`, for which the T/C is 100 % of control under setting [6], 98 % of control under setting [7] and 103 % of control under setting [8].

Take `CC(=O)OC1C2(CC3N4C(=O)C5(CO)SSC4(CC31O)C(=O)N5C)OC(C)C(C)(C)C2=O` (centres undefined): the T/C by setting is: (dose: 0.08 mg/kg/injection, schedule: Q01DX009 (ip), vehicle: saline) 101 % of control; (dose: 0.15 mg/kg/injection, schedule: Q01DX009 (ip), vehicle: saline) 108 % of control; (dose: 0.3 mg/kg/injection, schedule: Q01DX009 (ip), vehicle: saline) 111 % of control; (dose: 0.31 mg/kg/injection, schedule: Q01DX009 (ip), vehicle: saline) 107 % of control; (dose: 0.6 mg/kg/injection, schedule: Q01DX009 (ip), vehicle: saline) 111 % of control; (dose: 0.63 mg/kg/injection, schedule: Q01DX009 (ip), vehicle: saline with Tween-80) 97 % of control. In addition, the T/C reads like this: (dose: 0.63 mg/kg/injection, schedule: Q01DX009 (ip), vehicle: saline) 107 % of control; (dose: 0.78 mg/kg/injection, schedule: Q01DX009 (oral), vehicle: saline) 104 % of control; (dose: 1.2 mg/kg/injection, schedule: Q01DX009 (ip), vehicle: saline) 99 % of control; (dose: 1.25 mg/kg/injection, schedule: Q01DX009 (ip), vehicle: saline) 103 % of control and 111 % of control; (dose: 1.56 mg/kg/injection, schedule: Q01DX009 (oral), vehicle: saline) 105 % of control; (dose: 3.12 mg/kg/injection, schedule: Q01DX009 (oral), vehicle: saline) 100 % of control and 101 % of control. The T/C by setting is: (dose: 6.25 mg/kg/injection, schedule: Q01DX009 (oral), vehicle: saline) 95 % of control; (dose: 12.5 mg/kg/injection, schedule: Q01DX009 (oral), vehicle: saline) 89 % of control.

As to `C/C(=N\NC(=S)Nc1ccc(C(=O)O)cc1C)c1ccc2ccccc2n1`, the T/C by setting is: under setting [11], 109 % of control; (dose: 100.0 mg/kg/injection, schedule: Q01DX005 (ip), vehicle: saline with Tween-80) 107 % of control; (dose: 200.0 mg/kg/injection, schedule: Q01DX005 (ip), vehicle: saline with Tween-80) 119 % of control.

For `CCC(CC)NCCNc1cc(OC)cc2cccnc12`, the T/C reads like this: (dose: 12.5 mg/kg/injection, schedule: Q01DX005 (ip), vehicle: saline) 109 % of control; (dose: 25.0 mg/kg/injection, schedule: Q01DX005 (ip), vehicle: saline) 108 % of control; (dose: 50.0 mg/kg/injection, schedule: Q01DX005 (ip), vehicle: saline) 100 % of control and 103 % of control.

On to `Cc1c([N+](=O)[O-])oc2c1C(=O)c1ccccc1C2=O`, for which the T/C (dose: 15.0 mg/kg/injection, schedule: Q01DX005 (ip), vehicle: Klucel (hydroxypropylcellulose) (HPC)) was 95 % of control; the T/C (dose: 30.0 mg/kg/injection, schedule: Q01DX005 (ip), vehicle: Klucel (hydroxypropylcellulose) (HPC)) was 95 % of control; the T/C under setting [4] was 95 % of control and 96 % of control; the T/C under setting [5] is 102 % of control.

Consider `O=C1c2c(O)ccc(O)c2C(=O)c2c(NCCCCO)ccc(NCCCCO)c21`, for which the T/C is 103 % of control (dose: 0.62 mg/kg/injection, schedule: Q01DX009 (ip), vehicle: acid diluted with saline); 103 % of control (dose: 1.25 mg/kg/injection, schedule: Q01DX009 (ip), vehicle: acid diluted with saline); 103 % of control (dose: 2.5 mg/kg/injection, schedule: Q01DX009 (ip), vehicle: acid diluted with saline); 112 % of control (dose: 5.0 mg/kg/injection, schedule: Q01DX009 (ip), vehicle: acid diluted with saline); 102 % of control (dose: 10.0 mg/kg/injection, schedule: Q01DX009 (ip), vehicle: acid diluted with saline); 100 % of control (dose: 20.0 mg/kg/injection, schedule: Q01DX009 (ip), vehicle: acid diluted with saline). Moreover, the T/C reads like this: (dose: 40.0 mg/kg/injection, schedule: Q01DX009 (ip), vehicle: acid diluted with saline) 98 % of control; (dose: 80.0 mg/kg/injection, schedule: Q01DX009 (ip), vehicle: acid diluted with saline) 92 % of control; (dose: 160.0 mg/kg/injection, schedule: Q01DX009 (ip), vehicle: acid diluted with saline) 86 % of control.

As to `Cc1[nH]c2ccc(N(C)C)cc2c(=O)c1Cc1c(C)[nH]c2ccc(N(C)C)cc2c1=O`, the T/C is 92 % of control under setting [9] and 89 % of control under setting [10].

For `CC1(C)OC2COC3(C(=O)O)OC(C)(C)OC3C2O1` (centres undefined), the T/C by setting is: under setting [6], 100 % of control; under setting [7], 100 % of control; under setting [8], 98 % of control.

Consider `CN(C)C1C(O)C2Oc3c(cc(O)c4c3C(=O)c3cc5c(c(O)c3C4=O)C(NCCO)CC(C)(O)C5)C(C)(O2)C1O` (centres undefined), for which the T/C was 104 % of control (dose: 6.25 mg/kg/injection, schedule: Q01DX009 (ip), vehicle: other); 108 % of control (dose: 12.5 mg/kg/injection, schedule: Q01DX009 (ip), vehicle: other); 123 % of control under setting [1]; 157 % of control under setting [2]; 157 % of control under setting [3].

With `COc1cccc(Oc2ccc(C)c[n+]2CC(C)=O)c1`, the T/C was 100 % of control (dose: 25.0 mg/kg/injection, schedule: Q01DX005 (ip), vehicle: saline with Tween-80) and 105 % of control under setting [11].

For `CC(=O)Oc1c2c(c(C)c3ccccc13)C(=O)c1cccnc1C2=O`, the T/C was 98 % of control (dose: 100.0 mg/kg/injection, schedule: Q01DX001 (ip), vehicle: saline); 89 % of control (dose: 200.0 mg/kg/injection, schedule: Q01DX001 (ip), vehicle: saline); 92 % of control (dose: 400.0 mg/kg/injection, schedule: Q01DX001 (ip), vehicle: saline).
